Laboratory results: US20240254119A1 (THIRD HARMONIC BIO, INC., priority 2022, published 2024)

biological target: T1, CSF-1R (Homo sapiens, UniProt P07333); test: Caliper biochemical assay, CSF-1R; conditions: Table 6
T1 construct: purchased Invitrogen PV3249 (lot 662393N)
Experimental: (§1) Enzyme, substrate, and cofactors (ATP and Mn^2+) are combined in a well of a microtiter plate and incubated for 3 hours at 25° C. At the end of the incubation, the reaction is quenched by the addition of an EDTA-containing buffer. Substrate and product are separated electrophoretically using the microfluidic-based LabChip 3000 Drug Discovery System from Caliper Life Sciences* and quantitated by fluorescence intensity.
(§2) The substrate used in the CSF-1R and PDGFRα assay is FAM-[…]-CONH2 (FAM is carboxyfluorescein). Peptide should be >95% purity. The substrate for the KIT assay is FAM-[…]-NH2.
(§3) • 1. To a well of a 384-well plate add 5 μL of 2× enzyme buffer (or control) • 2. Add 100 nL of 100× compound. • 3. Add 5 μL of 2× substrate buffer. • 4. Incubate plate at 25° C. for 3 hours. • 5. Add 10 uL of […]. • 6. Read plate LabChip 3000 Drug Discovery System
(§4) • 3 hours at 25° C. where 100% Inhibitor: No enzyme.

T1 sequence (P07333 20-972): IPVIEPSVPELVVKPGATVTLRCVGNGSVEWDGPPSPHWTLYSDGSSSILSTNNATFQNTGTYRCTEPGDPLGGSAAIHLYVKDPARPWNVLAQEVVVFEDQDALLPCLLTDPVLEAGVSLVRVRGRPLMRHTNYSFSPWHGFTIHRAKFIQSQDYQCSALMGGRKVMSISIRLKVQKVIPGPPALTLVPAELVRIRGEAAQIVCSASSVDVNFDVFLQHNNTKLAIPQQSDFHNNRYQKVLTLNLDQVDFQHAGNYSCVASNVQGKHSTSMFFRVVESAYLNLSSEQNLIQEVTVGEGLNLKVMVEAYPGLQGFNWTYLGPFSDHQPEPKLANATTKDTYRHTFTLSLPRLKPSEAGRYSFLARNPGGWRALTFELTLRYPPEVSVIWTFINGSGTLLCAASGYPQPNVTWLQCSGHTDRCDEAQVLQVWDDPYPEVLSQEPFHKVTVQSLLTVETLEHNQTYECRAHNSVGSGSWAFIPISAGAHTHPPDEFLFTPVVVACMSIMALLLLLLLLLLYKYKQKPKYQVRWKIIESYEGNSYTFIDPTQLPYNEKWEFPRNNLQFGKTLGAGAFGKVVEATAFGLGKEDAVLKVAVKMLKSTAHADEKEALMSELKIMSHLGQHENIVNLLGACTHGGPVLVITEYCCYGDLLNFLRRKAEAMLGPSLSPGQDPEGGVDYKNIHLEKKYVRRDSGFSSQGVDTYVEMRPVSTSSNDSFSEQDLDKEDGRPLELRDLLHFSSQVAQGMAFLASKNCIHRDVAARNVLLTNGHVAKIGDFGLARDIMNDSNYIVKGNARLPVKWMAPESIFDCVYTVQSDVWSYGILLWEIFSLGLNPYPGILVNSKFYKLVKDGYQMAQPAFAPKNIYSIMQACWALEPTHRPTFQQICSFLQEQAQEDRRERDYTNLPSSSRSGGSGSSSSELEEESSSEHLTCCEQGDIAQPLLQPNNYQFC

IC50 [nM]	SMILES
50 to 500	COC(=O)N1CC(c2nc(-c3ccc(C)c(NC(=O)c4cnc5cc(COCC(F)(F)F)ccn45)c3)no2)C1 [Compound I-128]
500 to 5000	Cc1nc(-c2ccc(C)c(NC(=O)c3cnc4cc(COCC(F)(F)F)ccn34)c2)no1 [Compound I-133]
50 to 500	COC(=O)N1CC(c2nc(-c3ccc(C)c(NC(=O)c4cnc5cc(C(F)F)ccn45)c3)no2)C1 [Compound I-135]

biological target: T2, BCRP (BCRP-MDCKII monolayer) (Homo sapiens, UniProt Q9UNQ0); test: MDCKII-BCRP bidirectional transport assay; assay type: in vitro ADME; conditions: not given
T2 construct: host or cells: MDCKII (canine kidney) cells
T2 sequence (Q9UNQ0 1-655): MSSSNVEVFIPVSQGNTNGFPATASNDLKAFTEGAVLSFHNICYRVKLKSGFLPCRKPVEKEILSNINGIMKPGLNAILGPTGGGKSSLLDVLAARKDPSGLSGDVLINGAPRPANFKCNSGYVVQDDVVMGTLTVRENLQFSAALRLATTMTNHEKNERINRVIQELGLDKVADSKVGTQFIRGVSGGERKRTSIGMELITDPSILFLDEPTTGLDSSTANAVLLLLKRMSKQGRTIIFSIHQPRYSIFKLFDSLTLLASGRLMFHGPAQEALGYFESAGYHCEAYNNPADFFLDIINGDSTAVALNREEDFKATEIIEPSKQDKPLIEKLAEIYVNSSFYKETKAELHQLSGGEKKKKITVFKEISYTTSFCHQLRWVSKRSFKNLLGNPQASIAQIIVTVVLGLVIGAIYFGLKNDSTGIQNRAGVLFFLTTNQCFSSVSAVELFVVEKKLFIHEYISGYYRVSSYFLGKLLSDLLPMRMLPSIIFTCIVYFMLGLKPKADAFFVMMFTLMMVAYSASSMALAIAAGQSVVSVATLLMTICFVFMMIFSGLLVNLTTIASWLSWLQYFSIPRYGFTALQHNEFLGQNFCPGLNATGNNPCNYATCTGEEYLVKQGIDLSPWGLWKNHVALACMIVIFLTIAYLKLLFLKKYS
Experimental: Exemplary compounds were tested for cell permeability in Caco-2, MDCKII-MDR1 and MDCKII-BCRP cell lines with efflux transporter engagement inferred from the efflux ratios determined. Procedures and results are described below. […] This feature of certain compounds is in part due to efflux transporter engagement. See, for instance, exemplary such compounds included in data tables below.
The reference compound Teriflunomide and test compounds are tested in the bidirectional assay. Test compound and reference compounds incubations were tested in duplicates.
The transport assay can be performed between days 12 to day 15 using ready to use PreadyPort™ BCRP-MDCKII monolayer in 96 well plate.
The medium was aspirated from the apical and basal compartments and 75 and 235 μL assay buffer was added to each of the 96 wells of apical and basal compartments of the PreadyPort™ plate.
The plates were pre-incubated for 15 min at 37° C. with 5% CO2 in humidified atmosphere. After preincubation the assay buffer was removed from the apical and basal inserts of the plate.
In apical to basolateral (A→B) transport, 75 μL of test or reference compound working solution to apical inserts and 235 μL of blank assay buffer were added to the corresponding basal compartments.
In basolateral to apical transport, 235 μL of test or reference compound working solution to the basal compartments and 75 μL of blank assay buffer solution were added to corresponding apical inserts.
The sandwich plate was incubated for 120 min in incubator at 5% CO2 and 37° C.
After incubation, 60 μL was transferred from receiver and donor compartments to collection plate.
For donor and C0 samples 20-fold dilution was accomplished by mixing 60 μL of collected sample with 1140 μL of transport buffer and from that solution aliquot 60 μL transfer Both receiver and donor samples were processed by adding […] of acetonitrile containing internal standard (60 μL of sample+240 μL of acetonitrile containing glyburide as internal standard, 125 ng/mL) and vortexing the samples. The compound concentration was measured in all samples using respective calibration standards by LC-MS/MS.
Calculate the Papp and recovery using the given formula:
[formula] [formula] • Where: dQ/dt=Permeability rate in μM/see • C0=Initial concentration in μM • A=Membrane surface area (0.33 cm^2) • V=Volume of receiver chamber • Cend, a=concentration in acceptor well at end of incubation • Cend, d=concentration in donor well at end of incubation • CHBSS=loading concentration measured in HBSS

MDCK-BCRP: Efflux Ratio	SMILES
14.1	Cc1ccc(-c2noc(C3CC(S(=O)(=O)N(C)C)C3)n2)cc1NC(=O)c1cnc2ccccn12 (stereo not drawn) [Compound I-211]
16.9	COC(=O)N1CC(c2nc(-c3ccc(C)c(NC(=O)c4cnc5ccc(OC[C@H](C)O)cn45)c3)no2)C1 [Compound I-246]
1.31	COC(=O)C1CC(c2nc(-c3ccc(C)c(NC(=O)c4cnc5ccccn45)c3)no2)C1 (stereo not drawn) [Compound I-366]
0.77	COCC1(c2nc(-c3ccc(C)c(NC(=O)c4cnc5ccccn45)c3)no2)CC(F)(F)C1 [Compound I-378]
1.05	Cc1ccc(-c2noc(C3(C)CC(F)(F)C3)n2)cc1NC(=O)c1cnc2ccccn12 [Compound I-385]
1.56	Cc1ccc(-c2noc(C3(C)CC(F)C3)n2)cc1NC(=O)c1cnc2ccccn12 (stereo not drawn) [Compound I-386]
1.33	Cc1ccc(-c2noc([C@H]3CCN(C(=O)OC(C)(C)C)C3)n2)cc1NC(=O)c1cnc2ccccn12 [Compound I-398]

same assay, conditions: apical to basolateral

MDCK-BCRP: Papp A-B	SMILES
1.91 10^−6 cm/s	Cc1ccc(-c2noc(C3CC(S(=O)(=O)N(C)C)C3)n2)cc1NC(=O)c1cnc2ccccn12 (stereo not drawn) [Compound I-211]
1.81 10^−6 cm/s	COC(=O)N1CC(c2nc(-c3ccc(C)c(NC(=O)c4cnc5ccc(OC[C@H](C)O)cn45)c3)no2)C1 [Compound I-246]
10.2 10^−6 cm/s	COC(=O)C1CC(c2nc(-c3ccc(C)c(NC(=O)c4cnc5ccccn45)c3)no2)C1 (stereo not drawn) [Compound I-366]
16 10^−6 cm/s	COCC1(c2nc(-c3ccc(C)c(NC(=O)c4cnc5ccccn45)c3)no2)CC(F)(F)C1 [Compound I-378]
14.3 10^−6 cm/s	Cc1ccc(-c2noc(C3(C)CC(F)(F)C3)n2)cc1NC(=O)c1cnc2ccccn12 [Compound I-385]
11.4 10^−6 cm/s	Cc1ccc(-c2noc(C3(C)CC(F)C3)n2)cc1NC(=O)c1cnc2ccccn12 (stereo not drawn) [Compound I-386]
20.3 10^−6 cm/s	Cc1ccc(-c2noc([C@H]3CCN(C(=O)OC(C)(C)C)C3)n2)cc1NC(=O)c1cnc2ccccn12 [Compound I-398]

biological target: T3, wtKIT (Homo sapiens, UniProt P10721); test: Caliper biochemical assay, wtKIT; conditions: Table 6, read-out: KIT Biochemical IC50 avg
T3 construct: 1888289AM in the reaction mixtures
Experimental: as §1, §2, §3, §4
• 100 mM HEPES, pH 7.5 0.1% BSA • 0.01% Triton X-100 • 1 mM DTT • 10 mM MnCl2 • 10 μM Sodium Orthovanadate • 10 μM Beta-Glycerophosphate • 400 μM ATP • 1% DMSO (from compound) • 1 μM FAM-[…]-CONH2 5.0 nM wtKIT Enzyme (1888289AM)* • *Specific activity may vary from lot to lot. Enzyme concentration may need to be adjusted to yield 10-20% conversion of substrate to product.

T3 sequence (P10721 26-976): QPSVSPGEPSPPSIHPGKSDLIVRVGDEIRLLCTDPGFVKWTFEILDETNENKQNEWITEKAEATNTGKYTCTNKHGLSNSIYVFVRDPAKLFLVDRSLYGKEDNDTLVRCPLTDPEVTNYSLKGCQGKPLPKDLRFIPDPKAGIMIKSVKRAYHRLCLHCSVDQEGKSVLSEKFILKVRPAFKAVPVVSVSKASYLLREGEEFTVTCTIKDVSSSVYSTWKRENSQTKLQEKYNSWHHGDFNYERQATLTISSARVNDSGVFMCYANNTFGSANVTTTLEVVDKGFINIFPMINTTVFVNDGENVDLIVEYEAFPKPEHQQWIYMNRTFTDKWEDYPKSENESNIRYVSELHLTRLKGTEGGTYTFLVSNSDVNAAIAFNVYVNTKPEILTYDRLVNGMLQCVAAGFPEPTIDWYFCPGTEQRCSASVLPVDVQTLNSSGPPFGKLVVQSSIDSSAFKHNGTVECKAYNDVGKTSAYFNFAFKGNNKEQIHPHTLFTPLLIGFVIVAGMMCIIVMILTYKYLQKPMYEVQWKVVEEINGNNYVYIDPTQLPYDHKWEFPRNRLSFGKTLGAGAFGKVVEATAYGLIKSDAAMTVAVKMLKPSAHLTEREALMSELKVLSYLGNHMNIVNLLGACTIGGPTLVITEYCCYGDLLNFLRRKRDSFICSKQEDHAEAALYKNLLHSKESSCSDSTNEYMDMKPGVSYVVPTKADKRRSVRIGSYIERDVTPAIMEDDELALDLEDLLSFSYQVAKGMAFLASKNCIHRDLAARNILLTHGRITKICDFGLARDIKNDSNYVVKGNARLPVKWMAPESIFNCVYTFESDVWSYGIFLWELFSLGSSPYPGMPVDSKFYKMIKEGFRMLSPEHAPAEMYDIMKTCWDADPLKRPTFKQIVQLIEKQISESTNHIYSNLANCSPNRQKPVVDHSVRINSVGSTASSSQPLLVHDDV

SMILES	IC50 [nM]
Cc1ccc(-c2noc(C3CC(S(=O)(=O)N(C)C)C3)n2)cc1NC(=O)c1cnc2ccccn12 (stereo not drawn) [Compound I-211]	≤ 50
COC(=O)N1CC(c2nc(-c3ccc(C)c(NC(=O)c4cnc5ccc(OC[C@H](C)O)cn45)c3)no2)C1 [Compound I-246]	≤ 50
COC(=O)C1CC(c2nc(-c3ccc(C)c(NC(=O)c4cnc5ccccn45)c3)no2)C1 (stereo not drawn) [Compound I-366]	≤ 50
COCC1(c2nc(-c3ccc(C)c(NC(=O)c4cnc5ccccn45)c3)no2)CC(F)(F)C1 [Compound I-378]	≤ 50
Cc1ccc(-c2noc(C3(C)CC(F)(F)C3)n2)cc1NC(=O)c1cnc2ccccn12 [Compound I-385]	≤ 50
Cc1ccc(-c2noc(C3(C)CC(F)C3)n2)cc1NC(=O)c1cnc2ccccn12 (stereo not drawn) [Compound I-386]	≤ 50
Cc1ccc(-c2noc([C@H]3CCN(C(=O)OC(C)(C)C)C3)n2)cc1NC(=O)c1cnc2ccccn12 [Compound I-398]	50 to 500

The remaining lines, values ahead:

IC50 [nM]	SMILES
≤ 50	COC(=O)N1CC(c2nc(-c3ccc(C)c(NC(=O)c4cnc5cc(COCC(F)(F)F)ccn45)c3)no2)C1 [Compound I-128]
≤ 50	Cc1nc(-c2ccc(C)c(NC(=O)c3cnc4cc(COCC(F)(F)F)ccn34)c2)no1 [Compound I-133]
≤ 50	COC(=O)N1CC(c2nc(-c3ccc(C)c(NC(=O)c4cnc5cc(C(F)F)ccn45)c3)no2)C1 [Compound I-135]

biological target: T3, wtKIT; test: HTRF biochemical assay, wtKIT (phosphorylation of a peptide substrate); conditions: Table 4
Procedure, shortened: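 wtKIT (5.0 nM) phosphorylating 1 µM FAM-labelled peptide with 400 µM ATP and 10 mM MnCl2 in 100 mM HEPES pH 7.5, 1% DMSO, 3 h at 25 °C. EDTA quench; phosphopeptide detected with anti-phosphotyrosine antibody by HTRF. Enzyme titrated for 10-20% substrate conversion.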

IC50 [nM]	SMILES
50 to 500	Cc1ccc(-c2noc(C3CC(S(=O)(=O)N(C)C)C3)n2)cc1NC(=O)c1cnc2ccccn12 (stereo not drawn) [Compound I-211]
50 to 500	COC(=O)N1CC(c2nc(-c3ccc(C)c(NC(=O)c4cnc5ccc(OC[C@H](C)O)cn45)c3)no2)C1 [Compound I-246]

biological target: T4, PDGFRα (Homo sapiens, UniProt P16234); test: Caliper biochemical assay, PDGFRα; conditions: Table 6
T4 construct: purchased Millipore 14-467 (lot 26321_ACTI)
Experimental: as §1, §2, §3, §4

T4 sequence (P16234 24-1089): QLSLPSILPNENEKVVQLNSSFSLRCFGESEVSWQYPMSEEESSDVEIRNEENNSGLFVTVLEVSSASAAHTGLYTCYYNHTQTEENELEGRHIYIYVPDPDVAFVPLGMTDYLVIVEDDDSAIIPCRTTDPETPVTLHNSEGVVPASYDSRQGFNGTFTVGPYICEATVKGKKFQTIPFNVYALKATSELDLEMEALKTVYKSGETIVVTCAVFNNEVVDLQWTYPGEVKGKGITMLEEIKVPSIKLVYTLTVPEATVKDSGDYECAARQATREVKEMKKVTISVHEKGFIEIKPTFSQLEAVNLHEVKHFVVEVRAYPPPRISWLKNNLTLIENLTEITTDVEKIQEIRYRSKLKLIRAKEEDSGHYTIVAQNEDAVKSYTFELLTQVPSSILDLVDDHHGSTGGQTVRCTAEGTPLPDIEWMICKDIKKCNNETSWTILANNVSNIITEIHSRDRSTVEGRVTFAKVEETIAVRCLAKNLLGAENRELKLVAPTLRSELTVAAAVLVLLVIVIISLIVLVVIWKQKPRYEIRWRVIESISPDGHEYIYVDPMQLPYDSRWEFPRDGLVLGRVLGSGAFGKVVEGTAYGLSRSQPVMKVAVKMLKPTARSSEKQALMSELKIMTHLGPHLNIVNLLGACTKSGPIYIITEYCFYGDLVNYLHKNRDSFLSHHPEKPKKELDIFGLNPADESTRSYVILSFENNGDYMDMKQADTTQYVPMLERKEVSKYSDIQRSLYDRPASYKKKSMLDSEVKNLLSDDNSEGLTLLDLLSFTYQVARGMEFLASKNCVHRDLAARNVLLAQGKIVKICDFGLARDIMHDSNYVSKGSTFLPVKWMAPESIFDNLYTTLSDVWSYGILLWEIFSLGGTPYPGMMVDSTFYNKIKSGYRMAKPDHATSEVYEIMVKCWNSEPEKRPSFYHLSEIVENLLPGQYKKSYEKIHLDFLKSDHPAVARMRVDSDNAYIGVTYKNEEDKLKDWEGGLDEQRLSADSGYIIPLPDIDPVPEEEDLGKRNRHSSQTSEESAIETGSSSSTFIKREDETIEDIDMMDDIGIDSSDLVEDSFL

IC50 [nM]	SMILES
5000 to 30000	COC(=O)N1CC(c2nc(-c3ccc(C)c(NC(=O)c4cnc5cc(COCC(F)(F)F)ccn45)c3)no2)C1 [Compound I-128]
5000 to 30000	Cc1nc(-c2ccc(C)c(NC(=O)c3cnc4cc(COCC(F)(F)F)ccn34)c2)no1 [Compound I-133]
5000 to 30000	COC(=O)N1CC(c2nc(-c3ccc(C)c(NC(=O)c4cnc5cc(C(F)F)ccn45)c3)no2)C1 [Compound I-135]

tested on: not listed separately; test: Kinetic solubility assay; assay type: physicochemical; conditions: kinetic solubility, 50 mM PB (pH 7.4), shaken 24 hours at RT
Procedure, shortened: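 Test compounds from 10 mM DMSO stock were diluted in 50 mM phosphate buffer, pH 7.4, and shaken for 24 h at RT. After PTFE filtration and centrifugation, filtrate concentration was quantified by UPLC-UV/HPLC-UV against a standard curve.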

SMILES	Solubility (μM)
COC(=O)N1CC(c2nc(-c3ccc(C)c(NC(=O)c4cnc5cc(COCC(F)(F)F)ccn45)c3)no2)C1 [Compound I-128]	**** (a solubility less than or equal to 2 μM)
Cc1nc(-c2ccc(C)c(NC(=O)c3cnc4cc(COCC(F)(F)F)ccn34)c2)no1 [Compound I-133]	**** (a solubility less than or equal to 2 μM)
COC(=O)N1CC(c2nc(-c3ccc(C)c(NC(=O)c4cnc5cc(C(F)F)ccn45)c3)no2)C1 [Compound I-135]	**** (a solubility less than or equal to 2 μM)
Cc1ccc(-c2noc(C3CC(S(=O)(=O)N(C)C)C3)n2)cc1NC(=O)c1cnc2ccccn12 (stereo not drawn) [Compound I-211]	*** (a solubility greater than 2 μM and less than or equal to 10 μM)
COC(=O)N1CC(c2nc(-c3ccc(C)c(NC(=O)c4cnc5ccc(OC[C@H](C)O)cn45)c3)no2)C1 [Compound I-246]	**** (a solubility less than or equal to 2 μM)
COC(=O)C1CC(c2nc(-c3ccc(C)c(NC(=O)c4cnc5ccccn45)c3)no2)C1 (stereo not drawn) [Compound I-366]	**** (a solubility less than or equal to 2 μM)
COCC1(c2nc(-c3ccc(C)c(NC(=O)c4cnc5ccccn45)c3)no2)CC(F)(F)C1 [Compound I-378]	**** (a solubility less than or equal to 2 μM)
Cc1ccc(-c2noc(C3(C)CC(F)(F)C3)n2)cc1NC(=O)c1cnc2ccccn12 [Compound I-385]	**** (a solubility less than or equal to 2 μM)
Cc1ccc(-c2noc(C3(C)CC(F)C3)n2)cc1NC(=O)c1cnc2ccccn12 (stereo not drawn) [Compound I-386]	**** (a solubility less than or equal to 2 μM)
Cc1ccc(-c2noc([C@H]3CCN(C(=O)OC(C)(C)C)C3)n2)cc1NC(=O)c1cnc2ccccn12 [Compound I-398]	*** (a solubility greater than 2 μM and less than or equal to 10 μM)
